These results are taken from patent US5194445A, “Ascorbic acid derivative” (Nippon Hypox Laboratories Incorporated, priority 1989, dated 1993).

For one data set, the system named is Rat Liver Microsome. Briefly: Activity to Inhibit Hyperoxidation of Lipid of Rat Liver Microsome (thiobarbituric acid method). The class given is biochemical. The procedure:
Activity to Inhibit Hyperoxidation of Lipid of Rat Liver Microsome
A rat liver microsome was prepared according to a conventional method, and suspended in 1.15% KCl to obtain a microsome suspension.
The above microsome suspension in an amount equivalent to 2 mg of a protein was added to a tris-HCl buffer (pH 7.4) to which NADPH, ADP and FeCl3 had been added such that the final concentrations were 0.2 mM of NADPH, 1 mM of ADP and 10 μM of FeCl3.
A dimethylformamide (DMF) solution of each of test compounds in an amount of 10 μl or DMF in an amount of 10 μl was added such that the total amount of each of the mixtures was 1 ml, and then, the mixtures were kept at 37° C. for 20 minutes. In addition, the test compounds were added in such amounts that their final concentrations became 10^-5 M.
Thereafter, according to a thiobarbituric acid method, the above mixtures were measured for an amount of peroxide lipid formed. The inhibiting activities of the test compounds were compared with that of the group containing the solvent (DMF) alone, and the results were expressed as an inhibition ratio (%).
(Liver microsomes are a subcellular fraction often used to study metabolism.)

The subject of data set [1] is Ventricular Arrhythmia During Coronary Occlusion-Reperfusion in Rat Heart. Briefly: Activity to Inhibit Ventricular Arrhythmia During Coronary Occlusion-Reperfusion in Rat Heart. The class given is in vivo, male Wistar rats. The conditions noted are these: for Total time of arrhythmia occurrence (second) (mean + S.E.): 10 minutes (600 seconds) observation. The procedure:
Activity to Inhibit Ventricular Arrhythmia During Coronary Occlusion-Reperfusion in Rat Heart
Five to ten male Wistar rats (weight 230 to 460 g per rat) were used as one group for each of test compounds. Each of the rats was anesthetized with sodium pentobarbital, and electrocardiograms thereof were recorded with standard lead II.
The rats were subjected to thoracotomy under artificial respiration, and left coronary artery ramus anterior descendenses were ligated for 5 minutes and then perfused.
In addition, each of test compounds was suspended in a physiological saline containing 1% olive oil and 1% Tween 80, and the resultant suspensions were administered into femoral veins 2 minutes before the coronary occlusion, or orally administered 1 hour before the coronary occlusion, such that the amounts of said compounds were as predetermined.
When a left coronary artery ramus anterior descendence is occluded for 5 minutes and then reperfused, ventricular arrhythmia typified by ventricular tachycardia (VT) and ventricular fibrillation (VF) occurs.

The subject of data set [2] is Ischemic Brain Model Mouse. Briefly: Action on Survival Rate of Ischemic Brain Model Mouse. The class given is in vivo, ICR male mice. Particulars: oral, 100 mg/kg. The procedure: Action on Survival Rate of Ischemic Brain Model Mouse
Thirteen to fifty-six ICR male mice were used as one group for each of test compounds. Each of the mice was anesthetized by intraperitoneal administration of sodium pentobarbital, the bilateral carotid arteries were exposed, a thread was put around the arteries, and the skin was sutured with one end of the thread outside the body.
Three days after the suture of the skin, the bilateral carotid arteries were ligated for 3 minutes, and then reperfused to obtain ischemic brain model mice. And, a survival rate in each group 24 hours after the ligation-reperfusion of bilateral carotid arteries was determined.
In addition, each of the test compounds was suspended in a physiological saline containing 1% olive oil and 1% Tween 80, and the suspension was orally administered one hour before the ligation of the bilateral carotid arteries such that the amount of each test compound was 100 mg/kg.

In another data set the test system is CCl4 Liver Dysfunction. Briefly: Action on CCl4 Liver Dysfunction. The class given is in vivo, ICR male mice. Particulars: oral. As to the method: Action on CCl4 Liver Dysfunction
Fourteen and seventeen ICR male mice were used as one group for each test. Each of the mice was hypodermically administered in its dorsal portion with 10 ml/kg of a solution of 10% CCl4 in olive oil to develop acute hepatitis, and the serum obtained by centrifugation of a blood sample taken from each mouse 48 hours after the administration was measured on GOT (glutamic-oxaloacetic transaminase) activity and GPT (glutamic-pyruvictransaminase) activity with an autoanalyzer (AU550, supplied by Olympus K.K.).
In addition, the test compound was suspended in physiological saline containing 1% olive oil and 1% Tween 80, and the resultant suspension was orally administered three times in total, immediately after the CCl4 administration and in the morning and evening on the day thereafter, such that the dose of each test compound was 100 mg/kg/one time administration.

For data set [3], the system named is Ischemic Acute Renal Insufficiency. Briefly: Action on Ischemic Acute Renal Insufficiency. The class given is in vivo, male Wistar rats. The conditions noted are these: intravenous, 72 hours after reperfusion. The procedure:
Action on Ischemic Acute Renal Insufficiency
Four male Wistar rats (weight: about 200 g per rat) were used as one group for each test. Each of the rats was anesthetized with sodium pentobarbital, the right kidney was extirpated, and immediately thereafter, 100 IU/kg of heparin was intravenously administered to its tail. Eight minutes after the administration, the left renal artery was ligated with a suture, and 60 minutes after the ligation, and the renal artery was reperfused by unligating the suture to develop ischemic acute renal insufficiency in each of the rats.
Immediately before the administration of sodium pentobarbital and 72 hours after the reperfusion, blood samples were taken from the tail artery of each rat, and the serums obtained by centrifugation of the sample bloods were respectively measured for a blood urea nitrogen (BUN) amount and a creatinine amount, indices for renal insufficiency, with an autoanalyzer (AU550, supplied by Olympus K.K.).
In addition, the test compound was suspended in a physiological saline containing 1% olive oil and 1% Tween 80, and the resultant suspension was intravenously administered to the tail of each rat 10 minutes before the administration of sodium pentobarbital or 10 minutes before the reperfusion such that the dose of the test compound was 10 mg/kg or 30 mg/kg.

A further data set can be described thus: Stability Test. Format: physicochemical. The conditions noted are these: room temperature, after 24 hours, tris-HCl buffer pH 9.0; read-out: residual content. The procedure: A tris-HCI buffer having pH of 9.0 was added to each of alcohol solutions of the compounds (Ia2), (Ia3), (IA2) and 2-O-dodecyl ascorbic acid, which was a position isomer of the compound (IA2), in such a manner that the amount of the buffer was 100 times as large as that of each alcohol solution.
The test compounds in the solutions which were allowed to stand at room temperature were quantitatively determined with time to measure their stability.

Another data set concerns Mouse. Briefly: Acute Toxicity Test on Mouse. Format: in vivo, Male 3-ICR mice. The conditions noted are these: intravenous. As to the method: Acute Toxicity Test on Mouse
Male 3-ICR mice (10 weeks of age) were used. The compounds (Ia2), (Ia3) and (IA2) were intravenously administered to the mice in such a manner that the doses of each of the compounds were 30 mg/kg and 100 mg/kg. For one week after the administration, symptoms were observed.

Where [4] appears, read: 10^-5 M, pH 7.4, 37° C., 20 minutes, versus solvent (DMF) alone; 10 µM.
The mark [5] stands for this setting: 10^-5 M, pH 7.4, 37° C., 20 minutes, versus solvent (DMF) alone, 10 µM.
Setting [6] is: 100 mg/kg/one time, three times, serum 48 hours after CCl4.

Consider `CCCCCCC(=O)COC1=C(O)C(=O)O[C@@H]1[C@@H](O)CO` [(a), reference compound], for which the “Lipid hyperoxidation inhibition ratio (%)” value in the data set with Rat Liver Microsome (setting [4]) was found to be 27%.

In the case of `CCCCCCCCCCCCCCCCC(=O)COC1=C(O)C(=O)O[C@@H]1[C@@H](O)CO` [(b), reference compound], the “Lipid hyperoxidation inhibition ratio (%)” value in the data set on Rat Liver Microsome (setting [4]) came out at 43%.

Regarding `CCCCCCCCOC1=C(O)C(=O)O[C@@H]1[C@@H](O)CO` [(c), reference compound], the “Lipid hyperoxidation inhibition ratio (%)” value in the data set on Rat Liver Microsome (setting [4]) stood at 40%.

On to `CCCCCCCCCCCCCCCCCCOC1=C(O)C(=O)O[C@@H]1[C@@H](O)CO` [(d), reference compound], for which the “Lipid hyperoxidation inhibition ratio (%)” value in the data set with Rat Liver Microsome (setting [4]) is given as 45%.

Take `CCCCCCCCCCOC(=O)COC1=C(O)C(=O)O[C@@H]1[C@@H](O)CO` [Compound (IA5)]: the “Lipid hyperoxidation inhibition ratio (%)” value in the data set with Rat Liver Microsome (setting [5]) is 72%.

`CCCCCCCCCCCCCCCCCCOC(=O)COC1=C(O)C(=O)O[C@@H]1[C@@H](O)CO` [Compound (IA6)]: the “Lipid hyperoxidation inhibition ratio (%)” value in the data set on Rat Liver Microsome (setting [5]) is given as 73%.

In the case of `CCCCCCCCCCCCC(=O)COC1=C(O)C(=O)O[C@@H]1[C@@H](O)CO` [Compound (Ia3), 3-O-dodecylcarbonylmethyl ascorbic acid], the “Lipid hyperoxidation inhibition ratio (%)” value came to 85% with Rat Liver Microsome (setting [5]) and 81% in the data set on Rat Liver Microsome (10^-5 M, pH 7.4, 37° C., 20 minutes, versus solvent (DMF) alone, 10 µM, listed as Compound (IA3)). Also, the “Total time of arrhythmia occurrence (second) (mean + S.E.)” value amounted to 471.0 ± 73.6 s in data set [1] (i.v., 0.3 mg/kg, 2 minutes before coronary occlusion); 216.1 ± 59.6 s in data set [1] (i.v., 1 mg/kg, 2 minutes before coronary occlusion); 273.5 ± 93.8 s in data set [1] (i.v., 3 mg/kg, 2 minutes before coronary occlusion); 203.8 ± 91.0 s in data set [1] (i.v., 10 mg/kg, 2 minutes before coronary occlusion); 150.5 ± 79.8 s in data set [1] (i.v., 30 mg/kg, 2 minutes before coronary occlusion); 378.2 ± 61.4 s in data set [1] (p.o., 10 mg/kg, 1 hour before coronary occlusion). Moreover, the “Total time of arrhythmia occurrence (second) (mean + S.E.)” value is 313.3 ± 81.7 s in data set [1] (p.o., 30 mg/kg, 1 hour before coronary occlusion); 85.4 ± 28.9 s in data set [1] (p.o., 100 mg/kg, 1 hour before coronary occlusion); 123.6 ± 43.7 s in data set [1] (p.o., 300 mg/kg, 1 hour before coronary occlusion). For the same molecule, the “inhibition of occurrence of arrhythmia” value in data set [1] (intravenously, not less than 1 mg/kg) is recorded as “same significant inhibition”; in data set [1] (orally, not less than 10 mg/kg), “same significant inhibition”. For the same molecule, in data set [2] (one hour before ligation, 24 hours after ligation-reperfusion of bilateral carotid arteries), the “Survival rate (%)” value was 80.0%. Besides, in data set [2] (24 hours after ligation-reperfusion), the “survival rate versus vehicle group” value is listed as “significantly higher”. Further, the “GOT activity value” with CCl4 Liver Dysfunction (100 mg/kg) is “significantly reduced”. In addition, in the data set with CCl4 Liver Dysfunction (100 mg/kg), the “GPT activity value” was “significantly reduced”. Besides, in the data set on CCl4 Liver Dysfunction (setting [6]), the “GOT activity (mean ± S.E)” value was 445.0 ± 69.0 Unit/1. Besides, the “GPT activity (mean ± S.E)” value in the data set on CCl4 Liver Dysfunction (setting [6]) is 1,406.4 ± 185.2 Unit/1. Moreover, the “BUN amount (mean ± S.E.)” value is 33.8 ± 6.1 mg/dL in data set [3] (10 mg/kg) and 34.1 ± 8.9 mg/dL in data set [3] (30 mg/kg). The “Creatinine amount (mean ± S.E.)” value is 0.93 ± 0.05 mg/dL in data set [3] (10 mg/kg) and 1.04 ± 0.12 mg/dL in data set [3] (30 mg/kg). In addition, the “BUN amount versus vehicle group” value in data set [3] (10 or 30 mg/kg) is given as “significantly smaller”. In addition, the “creatinine amount versus vehicle group” value in data set [3] (10 or 30 mg/kg) is “significantly smaller”. The remaining at 24 h in the data set “Stability Test” is at least 80%. Also, the “death during observation for one week” value with Mouse (30 mg/kg) and with Mouse (100 mg/kg) was “no death was found” throughout.

For `CCCCCCCCCCCCCCC(=O)COC1=C(O)C(=O)OC1C(O)CO` (centres unmarked) [Compound (Ia4)], the “Lipid hyperoxidation inhibition ratio (%)” value in the data set with Rat Liver Microsome (setting [5]) is on record as 65%.
